Experiments:
[1] = biological target: T1, bovine erythrocyte CA (Bos taurus, UniProt P00921); details: test concentration not given; Figure 2
[2] = biological target: T1, bovine erythrocyte CA; details: sample 0.5 mM in DMSO, 15 min incubation with enzyme at room temperature
[3] = biological target: T1, bovine erythrocyte CA; test: biochemical

T1 sequence (P00921 whole entry): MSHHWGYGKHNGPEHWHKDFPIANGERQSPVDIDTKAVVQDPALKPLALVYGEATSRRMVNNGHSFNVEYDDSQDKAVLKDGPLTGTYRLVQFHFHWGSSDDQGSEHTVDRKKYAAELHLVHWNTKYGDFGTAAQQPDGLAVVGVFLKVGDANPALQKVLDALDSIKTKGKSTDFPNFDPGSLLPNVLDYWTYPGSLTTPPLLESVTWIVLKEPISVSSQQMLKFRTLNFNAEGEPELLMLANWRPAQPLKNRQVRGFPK

% inhibition [1]	enhancement of fluorescence signal after complex formation with CA [2]	IC50 [3]	Molecule
50.5%			CCCC1=NOC(=O)/C1=C/c1ccc(O)cc1 [AC4, (E)-4-(4-Hydroxybenzylidene)-3-propylisoxazol-5(4H)-one]
68.7%	significant fluorescence enhancement		(E)-4-(2-Methoxybenzylidene)-3-propylisoxazol-5(4H)-one [AC3]
79.5%	significant fluorescence enhancement	112 ± 1.6 µM	CCCC1=NOC(=O)/C1=C/c1cccs1 [AC2, (E)-3-Propyl-4-(thiophen-2-ylmethylene) Isoxazol-5(4H)-one]
58.4%			CCCC1=NOC(=O)/C1=C/c1ccc(OC)cc1O [AC1, (E)-4-(2-Hydroxy-4-methoxybenzylidene)-3-propylisoxazol-5(4H)-one]
